The values below are quoted from earlier work in patent publication US20060287342A1, “Triazolopyrimidine heterocycles as cannabinoid receptor modulators” (priority 2005, published 2006).

One series deals with human subjects. To be noted: 16 week trial period.
The conditions of series [1]: chronic administration for two weeks.

In the case of `Cc1c(C(=O)NN2CCCCC2)nn(-c2ccc(Cl)cc2Cl)c1-c1ccc(Cl)cc1` [SR-141716], the body weight result in the series on human subjects is given as “dose-dependently reduced body weight”.

Take `Cc1c(C(=O)NN2CCCCC2)nn(-c2ccc(Cl)cc2Cl)c1-c1ccc(I)cc1` [AM-251]: the body weight entry in series [1] is “substantial body weight reduction”.
